Laboratory results as given in patent US20260008995A1, “ISOLATED […], COMPOSITIONS COMPRISING THE SAME, AND USES THEREOF” (MOON (GUANGZHOU) BIOTECH CO., LTD., priority 2023, published 2026).

Experiments:
Strain MNH04863 = assay: antibiotic susceptibility testing, disk diffusion test; type: cell-based, Christensenella sp.; conditions: for MNH04863 Inhibition Zone Diameter: disk diffusion, strain MNH04863; for susceptibility of strain MNH04863 to the antibiotic: result in words
Method: (§1) Antibiotic susceptibility testing was performed separately for each strain using the disk diffusion test.

Strain MNH06163 = assay: as above; type: cell-based, Christensenella sp.; conditions: for MNH06163 Inhibition Zone Diameter: disk diffusion, strain MNH06163; for susceptibility of strain MNH06163 to the antibiotic: result in words
Method: as §1

Strain MNH05119 = assay: as above; type: cell-based, Christensenella sp.; conditions: for MNH05119 Inhibition Zone Diameter: disk diffusion, strain MNH05119; for susceptibility of strain MNH05119 to the antibiotic: result in words
Method: as §1

[1] = system: type II diabetic mice (db/db); assay: combination of MNH05119 and metformin in type II diabetic model mice (Example 7); type: in vivo, BKS-Leprem2Cd479/Gpt (db/db) mice; conditions: 28 days, MNH05119 2×10^10 CFU/mouse twice daily, metformin 250 mg/kg once daily, oral gavage
Text: (1) Experimental animals: The experimental mice were BKS-Leprem2Cd479/Gpt (db/db) mice, aged 5-6 weeks, 32 mice in total, purchased from GuangDong GemPharmatech Co., Ltd.
The activated strain was inoculated in MM01 liquid medium and cultured anaerobically to obtain a sufficient amount of cultures. These cultures were centrifuged, concentrated and resuspended in a solvent to obtain the subjects with purity and viable bacteria counts (1×10^11 CFU/mL) that satisfy the requirements of the animal experiments.
3) Negative control (HFD-control group): PBS-Cys was used as a negative control.
5) Experimental procedure: 5 to 6-week-old of 32 BKS-Leprem2Cd479/Gpt (db/db) male
mice were randomly grouped according to their body weights after quarantine, with 8 mice/group divided into 4 groups. […] All data were expressed as mean±SD, graphed and statistically analyzed using GraphPad Prism 8.0.2 software. […]
6) Oral Glucose Tolerance Test (OGTT): On the 27th day (Day27) of administration, OGTT was determined after 12 h of fasting (e.g., fasting from 20:30:00 μm to 08:30:00 μm the following day). The fasting body weights of the mice were measured and glucose was administered by gavage at a dose of 2 g/kg (glucose g/mouse fasting body weight kg). Fasting blood glucose as well as blood glucose values at 15 min, 30 min, 60 min, 90 min and 120 min post-glucose administration were measured.

CC1(C)S[C@@H]2[C@H](NC(=O)[C@H](N)c3ccccc3)C(=O)N2[C@H]1C(=O)O [Ampicillin (AMP), Ampicillin]
MNH04863 Inhibition Zone Diameter (Strain MNH04863): 0 mm
susceptibility of strain MNH04863 to the antibiotic (Strain MNH04863): resistance
MNH06163 Inhibition Zone Diameter (Strain MNH06163): 0 mm
susceptibility of strain MNH06163 to the antibiotic (Strain MNH06163): resistance
MNH05119 Inhibition Zone Diameter (Strain MNH05119): 0 mm
susceptibility of strain MNH05119 to the antibiotic (Strain MNH05119): resistance

CN(C)C(=N)N=C(N)N [metformin]
reduction of fasting blood glucose value compared to negative control group [1]: 50%

Penicillin [Penicillin (PEN)]
MNH04863 Inhibition Zone Diameter (Strain MNH04863): 43.06 mm
susceptibility of strain MNH04863 to the antibiotic (Strain MNH04863): sensitive
MNH06163 Inhibition Zone Diameter (Strain MNH06163): 0 mm
susceptibility of strain MNH06163 to the antibiotic (Strain MNH06163): resistance
MNH05119 Inhibition Zone Diameter (Strain MNH05119): 0 mm
susceptibility of strain MNH05119 to the antibiotic (Strain MNH05119): resistance

Gentamycin [Gentamycin (GEN)]
MNH04863 Inhibition Zone Diameter (Strain MNH04863): 0 mm
susceptibility of strain MNH04863 to the antibiotic (Strain MNH04863): resistance
MNH06163 Inhibition Zone Diameter (Strain MNH06163): 0 mm
susceptibility of strain MNH06163 to the antibiotic (Strain MNH06163): resistance
MNH05119 Inhibition Zone Diameter (Strain MNH05119): 0 mm
susceptibility of strain MNH05119 to the antibiotic (Strain MNH05119): resistance

O=C(O)c1cn(C2CC2)c2cc(N3CCNCC3)c(F)cc2c1=O [Ciprofloxacin (CFX), Ciprofloxacin]
MNH04863 Inhibition Zone Diameter (Strain MNH04863): 0 mm
susceptibility of strain MNH04863 to the antibiotic (Strain MNH04863): resistance
MNH06163 Inhibition Zone Diameter (Strain MNH06163): 0 mm
susceptibility of strain MNH06163 to the antibiotic (Strain MNH06163): resistance
MNH05119 Inhibition Zone Diameter (Strain MNH05119): 0 mm
susceptibility of strain MNH05119 to the antibiotic (Strain MNH05119): resistance

CC[C@H]1OC(=O)[C@H](C)[C@@H](O[C@H]2C[C@@](C)(OC)[C@@H](O)[C@H](C)O2)[C@H](C)[C@@H](O[C@@H]2O[C@H](C)C[C@H](N(C)C)[C@H]2O)[C@](C)(O)C[C@@H](C)C(=O)[C@H](C)[C@@H](O)[C@]1(C)O [Erythromycin (ERM), Erythromycin]
MNH04863 Inhibition Zone Diameter (Strain MNH04863): 16.82 mm
susceptibility of strain MNH04863 to the antibiotic (Strain MNH04863): sensitive
MNH06163 Inhibition Zone Diameter (Strain MNH06163): 8.72 mm
susceptibility of strain MNH06163 to the antibiotic (Strain MNH06163): sensitive
MNH05119 Inhibition Zone Diameter (Strain MNH05119): 31.65 mm
susceptibility of strain MNH05119 to the antibiotic (Strain MNH05119): sensitive

Compound sulfamethoxazole [sulfamethoxazole (T/S)]
MNH04863 Inhibition Zone Diameter (Strain MNH04863): 0 mm
susceptibility of strain MNH04863 to the antibiotic (Strain MNH04863): resistance
MNH06163 Inhibition Zone Diameter (Strain MNH06163): 0 mm
susceptibility of strain MNH06163 to the antibiotic (Strain MNH06163): resistance
MNH05119 Inhibition Zone Diameter (Strain MNH05119): 0 mm
susceptibility of strain MNH05119 to the antibiotic (Strain MNH05119): resistance

CO/N=C(\C(=O)N[C@@H]1C(=O)N2C(C(=O)O)=C(CSc3nc(=O)c(=O)[nH]n3C)CS[C@H]12)c1csc(N)n1 [Ceftriaxone (CTR), Ceftriaxone]
MNH04863 Inhibition Zone Diameter (Strain MNH04863): 37.32 mm
susceptibility of strain MNH04863 to the antibiotic (Strain MNH04863): sensitive
MNH06163 Inhibition Zone Diameter (Strain MNH06163): 0 mm
susceptibility of strain MNH06163 to the antibiotic (Strain MNH06163): resistance
MNH05119 Inhibition Zone Diameter (Strain MNH05119): 0 mm
susceptibility of strain MNH05119 to the antibiotic (Strain MNH05119): resistance

CN(C)[C@@H]1C(O)=C(C(N)=O)C(=O)[C@@]2(O)C(O)=C3C(=O)c4c(O)cccc4[C@@](C)(O)[C@H]3C[C@@H]12 [Tetracycline (TET), Tetracycline]
MNH04863 Inhibition Zone Diameter (Strain MNH04863): 46.11 mm
MNH06163 Inhibition Zone Diameter (Strain MNH06163): 18.14 mm
MNH05119 Inhibition Zone Diameter (Strain MNH05119): 24.12 mm

O=C(N[C@H](CO)[C@H](O)c1ccc([N+](=O)[O-])cc1)C(Cl)Cl [Chloramphenicol (CLM), Chloramphenicol]
MNH04863 Inhibition Zone Diameter (Strain MNH04863): 38.88 mm
susceptibility of strain MNH04863 to the antibiotic (Strain MNH04863): sensitive
MNH06163 Inhibition Zone Diameter (Strain MNH06163): 21.59 mm
susceptibility of strain MNH06163 to the antibiotic (Strain MNH06163): sensitive
MNH05119 Inhibition Zone Diameter (Strain MNH05119): 32.49 mm
susceptibility of strain MNH05119 to the antibiotic (Strain MNH05119): sensitive

CCC[C@@H]1C[C@@H](C(=O)N[C@@H]([C@H]2O[C@H](SC)[C@H](O)[C@@H](O)[C@H]2O)[C@@H](C)O)N(C)C1 [Lincomycin (LIN), Lincomycin]
MNH04863 Inhibition Zone Diameter (Strain MNH04863): 29.86 mm
susceptibility of strain MNH04863 to the antibiotic (Strain MNH04863): sensitive
MNH06163 Inhibition Zone Diameter (Strain MNH06163): 0 mm
susceptibility of strain MNH06163 to the antibiotic (Strain MNH06163): resistance
MNH05119 Inhibition Zone Diameter (Strain MNH05119): 0 mm
susceptibility of strain MNH05119 to the antibiotic (Strain MNH05119): resistance
